Results reported in patent US4211779A, “7α-Methoxy substituted cephalosporins” (Shionogi & Co., Ltd., priority 1976, dated 1980).
In brackets after ≈: the same amount, converted by molar mass.

Assays:
Format in all cases: cell-based
Escherichia coli No. 73 = experiment: Antibacterial activity (MIC), Escherichia coli No. 73
Protocol: (§1) Free acids found in Examples 2 to 5 are dissolved in dilute aqueous sodium hydrogencarbonate solution to yield the corresponding aqueous sodium salts solutions.

[1] = system: Klebsilla pneumoniae No. 363; experiment: Antibacterial activity (MIC), Klebsiella pneumoniae No. 363
Protocol: as §1

[2] = system: gram negative bacteria resistant to cephalosporins; experiment: antibacterial activity against gram negative bacteria resistant to cephalosporins; conditions: compared with the compound wherein Y is hydrogen
[3] = NO.363, Klebsiella pneumoniae No. 363, innoculum size 10^6
[4] = NO.363, Klebsiella pneumoniae No. 363, innoculum size 10^8

Row | Structure (SMILES) | MIC (Escherichia coli No. 73; innoculum size 10^6) [µg/mL] | MIC (Escherichia coli No. 73; innoculum size 10^8) [µg/mL] | MIC [1, 3] [µg/mL] | MIC [1, 4] [µg/mL] | antibacterial activity against gram negative bacteria resistant to cephalosporins [2]
1 | CCN1CCN(C(=O)NC(C(=O)NC2(OC)C(=O)N3C(C(=O)O)=C(CSc4nnnn4C)CSC32)c2ccc(O)cc2)C(=O)C1=O (stereo not shown) [Y OCH3] | 1.6 (≈ 2.37 µM) | 3.1 (≈ 4.59 µM) | 0.8 (≈ 1.18 µM) | 1.6 (≈ 2.37 µM) | more potent antibacterial activity
2 | CO[C@@]1(NC(=O)Cc2cccs2)C(=O)N2C(C(=O)O)=C(COC(N)=O)CS[C@@H]21 [cefoxitin] | 12.5 (≈ 29.2 µM) | 12.5 (≈ 29.2 µM) | 1.6 (≈ 3.74 µM) | 6.3 (≈ 14.7 µM) | 
3 | CCN1CCN(C(=O)NC(C(=O)N[C@@H]2C(=O)N3C(C(=O)O)=C(CSc4nnnn4C)CS[C@H]23)c2ccc(O)cc2)C(=O)C1=O (stereo partly shown) [Y H] | 25 (≈ 38.7 µM) | > 100 | 100 (≈ 155 µM) | > 100 | 
